Several values for one entry are separate records, joined by “and”; a condition that tells them apart may be missing. Equal values may be shown once.
Assays:
[1] = test system: acetic acid-induced writhing (visceral pain) in mice; assay: Acetic acid writhing (AAW) analgesic assay; assay type: in vivo
Protocol: An analgesic assay was used to determine whether a given compound can reduce and/or prevent visceral pain in mice. The assay utilizes Swiss Albino or CD-1 male mice (5-10 mice per group), each mouse being approximately 0.015-0.030 kg on the study day. Mice were treated according to standard protocols.
The animal was given an intraperitoneal (IP) injection of an irritant (acetic acid) that induces “writhing” which may include: contractions of the abdomen, twisting and turning of the trunk, arching of the back and the extension of the hindlimbs. Mice are given a single IP injection (0.1 mL/10 g bodyweight) of a 0.5% acetic acid solution. After the injection the animals were returned to their observation enclosure and their behavior was observed. Contractions were counted between 0 and 20 minutes after the injection. The animals were used once. In certain instances, the test articles were administered at multiple doses to determine a dose response curve.
Table 4 provides the results for certain compounds of the present invention that were administered subcutaneously. Table 5 provides the results for certain compounds of the present invention that were administered orally.

[2] = test system: locomotor activity of mice; assay: Locomotor activity; assay type: in vivo; conditions: oral, 30 min predose, 20 min observation
Protocol: Male Swiss Albino mice were treated orally with vehicle (0.5% HPMC+0.1% Tween80), ketazocine, Compound 12 (0.3, 3 and 30 mg/kg) or Compound 20 (0.3, 3 and 30 mg/kg) thirty minutes prior to placement in the locomotor activity chamber. Total distance travelled was measured over the twenty minute observation time following placement in the locomotor activity chamber. Data are normalized relative to percent distance travelled in the vehicle group. The efficacy of Compound 12 (reported as percent distance travelled in comparison to vehicle) was 88.85%, 83.74% and 0.08% at 0.3, 3 and 30 mg/kg dosages, respectively, while the locomotor activity of Compound 20 (reported as percent distance travelled in comparison to vehicle) was 100%, 88% and 0.03% at 0.3, 3 and 30 mg/kg dosages, respectively.

[3] = target: human mu (MOR) opioid receptor (Homo sapiens (Human), UniProt P35372); assay: Radioligand competition binding assay, mu opioid receptor; conditions: 10 uM, [3H]Naloxone; read-out: Mu receptor % inhibition at single concentration
Protocol: The binding affinities of certain compounds of the present invention were evaluated using radioligand binding assays in membranes prepared from CHO-K1 cells expressing recombinant human kappa (KOR) or mu (MOR) opioid receptors.
Competition binding experiments were conducted by incubating membrane protein to equilibrium in triplicate in the presence of a fixed concentration of radioligand and increasing concentrations of test compound for evaluation of binding to KOR or single concentration (10 μM) of test compound for evaluation of binding to MOR in 101 μL final volume. The radioligands used were specific for each receptor type, and the assay conditions are described in Table 1. Following incubations, the membranes were rapidly filtered through GF/B filter plate (presoaked with 0.5% polyethyleneimine), washed five times with cold 50 mM Tris-HCl, pH 7.5, and the bound radioactivity was then measured by liquid scintillation counting. Non-specific binding was measured in the presence of excess ligand; this value was subtracted from the total binding to yield the specific binding at each test concentration.
Ki (affinity of test compound) was obtained using the Cheng Prusoff correction using experimental Kd (affinity of radioligand) values that were previously determined under these assay conditions. For MOR binding, compounds were tested at one concentration, 10 μM, to evaluate its ability to inhibit specific radioligand binding. The values are expressed as percent inhibition of specific binding and greater than 50% inhibition of binding was considered to be significant.
With respect to determining MOR binding, an approach similar to one used for KOR binding was used.

`COCCOCCOCCOCCOCCOc1cccc(Nc2ccc3c(c2)[C@]2(C)CCN(CC4CC4)[C@H](C3=O)[C@@H]2C)c1` [Example 8, (2S,6R,11R)-8-((3-(2,5,8,11,14-pentaoxahexadecan-16-yloxy)phenyl)amino)-3-(cyclopropylmethyl)-6,11-dimethyl-3,4,5,6-tetrahydro-2,6-methanobenzo[d]azocin-1(2H)-one] was tested, and the inhibition in vivo at 30 mg/kg ([1]; Mus musculus, sc, subcutaneous, 30 mg/kg, read-out: AAW % Efficacy) was 100% and the “AAW % Efficacy” value ([1]; subcutaneous, 3 mg/kg) was 38.0%.
For `COCCOCCOCCOCCOCCNc1ccc(Nc2ccc3c(c2)[C@]2(C)CCN(CC4CC4)[C@H](C3=O)[C@@H]2C)cc1` [Example 12, (2S,6R,11R)-8-((4-(2,5,8,11,14-pentaoxahexadecan-16-ylamino)phenyl)amino)-3-(cyclopropylmethyl)-6,11-dimethyl-3,4,5,6-tetrahydro-2,6-methanobenzo[d]azocin-1(2H)-one], the “percent distance travelled in comparison to vehicle” value (“percent distance travelled” for short) ([2]; 0.3 mg/kg) was 88.85%, the “percent distance travelled” value ([2]; 3 mg/kg) was 83.74% and the “percent distance travelled” value ([2]; 30 mg/kg) was 0.08%. The “AAW % Efficacy” value ([1]; oral, 0.1 mg/kg) was 22.5%, the “AAW % Efficacy” value ([1]; oral, 1 mg/kg) was 56.9% and the “AAW % Efficacy” value ([1]; oral, 10 mg/kg) was 97.2% and 90.2%. For the same compound, the “AAW % Efficacy” value ([1]; subcutaneous, 30 mg/kg) was 100.0%.
In the case of `COCCOCCOCCOCCOCCOCCOCCOc1ccc2c(c1)[C@]1(C)CCN(CC3CC3)[C@H](C2=O)[C@@H]1C` [Example 6, (2S,6R,11R)-3-(Cyclopropylmethyl)-8-(2,5,8,11,14,17,20-heptaoxadocosan-22-yloxy)-6,11-dimethyl-3,4,5,6-tetrahydro-2,6-methano-3-benzazocin-1(2H)-One], the inhibition at 10 µM [3] was 48.6%.
With `COCCOCCN1CC[C@@]2(C)c3cc(O)ccc3C(=O)[C@@H]1[C@@H]2C` [Example 14, (2S,6R,11R)-8-hydroxy-3-(2-(2-methoxyethoxy)ethyl)-6,11-dimethyl-3,4,5,6-tetrahydro-2,6-methanobenzo[d]azocin-1(2H)-One] the “AAW % Efficacy” value ([1]; subcutaneous, 10 mg/kg) was 13.2%.
In the case of `COCCNC(=O)c1ccc2c(c1)[C@]1(C)CCN(CC3CC3)[C@H](C2=O)[C@@H]1C` [Example 16, (2S,6R,11R)-3-(cyclopropylmethyl)-N-(2-methoxyethyl)-6,11-dimethyl-1-oxo-1,2,3,4,5,6-hexahydro-2,6-methanobenzo[d]azocine-8-carboxamide], the “AAW % Efficacy” value ([1]; subcutaneous, 10 mg/kg) was 26.4%.
For `COCCOCC(=O)NCc1ccc2c(c1)[C@]1(C)CCN(CC3CC3)C(C2=O)[C@@H]1C` [Example 17, N,N-(((2S,6R,11R)-3-(cyclopropylmethyl)-6,11-dimethyl-1-oxo-1,2,3,4,5,6-hexahydro-2,6-methanobenzo[d]azocin-8-yl)methyl)-2-(2-methoxyethoxy)acetamide], the “AAW % Efficacy” value ([1]; subcutaneous, 10 mg/kg) was 23.3%.
In the case of `COCCOCCOCCOCCOCCNc1nc2cc3c(cc2s1)C(=O)[C@@H]1[C@H](C)[C@@]3(C)CCN1CC1CC1` [Example 13, (6S,10R,12R)-2-(2,5,8,11,14-pentaoxahexadecan-16-ylamino)-7-(cyclopropylmethyl)-10,12-dimethyl-7,8,9,10-tetrahydro-6,10-methanothiazolo[4′,5′:4,5]benzo[1,2-d]azocin-5(6H)-one], the “AAW % Efficacy” value ([1]; subcutaneous, 10 mg/kg) was 40.2%.
For `COCCOCCNCc1ccc2c(c1)[C@]1(C)CCN(CC3CC3)[C@H](C2=O)[C@@H]1C` [Example 18, (2S,6R,11R)-3-(cyclopropylmethyl)-8-(((2-(2-methoxyethoxy)ethyl)amino)methyl)-6,11-dimethyl-3,4,5,6-tetrahydro-2,6-methanobenzo[d]azocin-1(2H)-one], the “AAW % Efficacy” value ([1]; subcutaneous, 10 mg/kg) was 31.9%.
`COCCOCCOCCOCCOCCOc1ccc(Nc2ccc3c(c2)[C@]2(C)CCN(CC4CC4)[C@H](C3=O)[C@@H]2C)cc1` [Example 9, (2S,6R,11R)-8-((4-(2,5,8,11,14-pentaoxahexadecan-16-yloxy)phenyl)amino)-3-(cyclopropylmethyl)-6,11-dimethyl-3,4,5,6-tetrahydro-2,6-methanobenzo[d]azocin-1(2H)-one] was tested, and the “AAW % Efficacy” value ([1]; oral, 10 mg/kg) was 38.5%, the “AAW % Efficacy” value ([1]; subcutaneous, 0.3 mg/kg) was 13.3% and the “AAW % Efficacy” value ([1]; subcutaneous, 3 mg/kg) was 67.8% and 61.4%. The “AAW % Efficacy” value ([1]; subcutaneous, 10 mg/kg) was 95.4% and the “AAW % Efficacy” value ([1]; subcutaneous, 30 mg/kg) was 99.2%.
`COCCOCCOCCOCCOCCOCCOCCNc1ccc2c(c1)[C@]1(C)CCN(CC3CC3)[C@H](C2=O)[C@@H]1C` [Example 3, (2S,6R,11R)-3-(Cyclopropylmethyl)-8-(2,5,8,11,14,17,20-heptaoxadocosan-22-ylamino)-6,11-dimethyl-3,4,5,6-tetrahydro-2,6-methano-3-benzazocin-1 (2H)-One] gave an inhibition at 10 µM [3] of 80.6%.
In the case of `COCCOCCOCCOCCOCCNc1ccc(Nc2ccc3c(c2)[C@]2(C)CCN(CC4CC4)[C@H](C3=O)[C@@H]2C)cc1` [Example 10, (2S,6R,11R)-8-((4-(2,5,8,11,14-pentaoxahexadecan-16-ylamino)phenyl)amino)-3 (cyclopropylmethyl)-6,11-dimethyl-3,4,5,6-tetrahydro-2,6-methanobenzo[d]azocin-1(2H)-one], the “AAW % Efficacy” value ([1]; subcutaneous, 3 mg/kg) was 34.0% and the “AAW % Efficacy” value ([1]; subcutaneous, 30 mg/kg) was 100.0%.
In the case of `COCCOCCOCCOCCOCCOc1ccccc1Nc1ccc2c(c1)[C@]1(C)CCN(CC3CC3)[C@H](C2=O)[C@@H]1C` [Example 7, (2S,6R,11R)-8-((2-(2,5,8,11,14-pentaoxahexadecan-16-yloxy)phenyl)amino)-3-(cyclopropylmethyl)-6,11-dimethyl-3,4,5,6-tetrahydro-2,6-methanobenzo[d]azocin-1(2H)-one], the “AAW % Efficacy” value ([1]; subcutaneous, 3 mg/kg) was 38.8% and the “AAW % Efficacy” value ([1]; subcutaneous, 30 mg/kg) was 84.8%.
For `C[C@H]1[C@H]2C(=O)c3ccc(Nc4ccc(NCCOCCOCCOCCOCCOC(F)(F)F)cc4)cc3[C@]1(C)CCN2CC1CC1` [Example 20, (2S,6R,11R)-3-(cyclopropylmethyl)-6,11-dimethyl-8-((4-((1,1,1-trifluoro-2,5,8,11,14-pentaoxahexadecan-16-yl)amino)phenyl)amino)-3,4,5,6-tetrahydro-2,6-methanobenzo[d]azocin-1(2H)-One], the “percent distance travelled” value ([2]; 0.3 mg/kg) was 100%, the “percent distance travelled” value ([2]; 3 mg/kg) was 88% and the “percent distance travelled” value ([2]; 30 mg/kg) was 0.03%. For the same compound, the “AAW % Efficacy” value ([1]; oral, 0.3 mg/kg) was 39.1%, the “AAW % Efficacy” value ([1]; oral, 3 mg/kg) was 79.5% and the “AAW % Efficacy” value ([1]; oral, 30 mg/kg) was 100.0%. The “AAW % Efficacy” value ([1]; subcutaneous, 10 mg/kg) was 88.1%.
`COCCOCC(=O)Nc1ccc2c(c1)[C@]1(C)CCN(CC3CC3)[C@H](C2=O)[C@@H]1C` [Example 15, N-((2S,6R,11R)-3-(cyclopropylmethyl)-6,11-dimethyl-1-oxo-1,2,3,4,5,6-hexahydro-2,6-methanobenzo[d]azocin-8-yl)-2-(2-methoxyethoxy)acetamide] was tested, and the “AAW % Efficacy” value ([1]; subcutaneous, 10 mg/kg) was 100.0%.
In the case of `COCCOCCOCCOCCOCCNc1cccc(Nc2ccc3c(c2)[C@]2(C)CCN(CC4CC4)[C@H](C3=O)[C@@H]2C)c1` [Example 11, (2S,6R,11R)-8-((3-(2,5,8,11,14-pentaoxahexadecan-16-ylamino)phenyl)amino)-3-(cyclopropylmethyl)-6,11-dimethyl-3,4,5,6-tetrahydro-2,6-methanobenzo[d]azocin-1(2H)-One], the “AAW % Efficacy” value ([1]; oral, 10 mg/kg) was 31.2%, the “AAW % Efficacy” value ([1]; subcutaneous, 0.3 mg/kg) was 21.1% and the “AAW % Efficacy” value ([1]; subcutaneous, 3 mg/kg) was 62.2% and 64.3%. For the same compound, the “AAW % Efficacy” value ([1]; subcutaneous, 10 mg/kg) was 99.1% and the “AAW % Efficacy” value ([1]; subcutaneous, 30 mg/kg) was 100.0%.
`COCCOCCOCCOCCOCCOc1c(O)ccc2c1[C@]1(C)CCN(CC3CC3)[C@H](C2=O)[C@@H]1C` [Example 19, (2S,6R,11R)-7-(2,5,8,11,14-pentaoxahexadecan-16-yloxy)-3-(cyclopropylmethyl)-8-hydroxy-6,11-dimethyl-3,4,5,6-tetrahydro-2,6-methanobenzo[d]azocin-1(2H)-one] was tested, and the “AAW % Efficacy” value ([1]; subcutaneous, 10 mg/kg) was 31.6%.
For `C[C@H]1[C@H]2C(=O)c3cc4sc(N)nc4cc3[C@]1(C)CCN2CC1CC1` [Step 1 of 13, (6S,10R,12R)-2-amino-7-(cyclopropylmethyl)-10,12-dimethyl-7,8,9,10-tetrahydro-6,10-methanothiazolo[4′,5′:4,5]benzo[1,2-d]azocin-5(6H)-One], the “AAW % Efficacy” value ([1]; subcutaneous, 10 mg/kg) was 100%.
